Our source for the GPT and GOT values is US4080442A, “Disaccharide derivatives used in the treatment of hepatic diseases” (Meito Sangyo Kabushiki Kaisha, priority 1975, dated 1978).

This assay concerns experimental hepatitis induced by D-galactosamin. Nature of the assay: Conjoint use of glutathione in experimental hepatitis induced by D-galactosamin. In kind it is in vivo, female Wistar rats. The conditions noted are these: GSH 5 mg/rat, GSSH 5 mg/rat, AS 75 mg/rat, mixtures: GSH or GSSH 5 mg/rat + AS 75 mg/rat, average value ± S.E. As for the experimental part:
Groups each of 10 female Wistar rats of 100 - 120 gram body weight put on a fast of 2 hours prior to the experiment were used. […] One hour after these administrations, all of the groups were administered with D-galactosamin. The administration of the D-galactosamin was performed in the following manner. […] After completion of this administration, the fasted state was continued. Twenty-two hours after the administration of the D-galactosaminhydrochloride, blood was taken from the abdominal aorta and measured for the GOT, GPT, bilirubin and blood glucose contained in the blood plasma. The GOT and GPT were measured by the Reitman-Frankel Method, the bilirubin by the Evelyn-Malloy Method and the blood glucose by the […].
The effects obtained by using injection mixtures of either a reduced type glutathione or an oxidized type glutathione and a sucrose derivative obtained by the method of preparing a pharmaceutical composition of the hereinafter-given Example 11 in treating animals suffering from hepatitis induced by D-galactosamin were tested by operating as in I., above.

With `N[C@@H](CCC(=O)N[C@@H](CS)C(=O)NCC(=O)O)C(=O)O` [GSH, Reduced type glutathione], where the note is “control 1830±432”, the GPT came out at 1660±472 Karman U. Also, for the setting “control 2748±490”, the GOT was 2510±510 Karmen U.
